Assay results: ChEMBL document CHEMBL1201862, “PubChem BioAssay data set” (2004)
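Grown in 96-well plates, cells were treated for 48 hours with each compound at five concentrations. Insufficient inhibition: endpoint recorded as highest concentration tested. At the GI50, growth is halved.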 Activity calls are given as the source filed them. No stated cut-off is given here; in the data, active = GI50 up to about 1.1 µM and inactive = higher.

What was measured:
Test in all cases: inhibition of tumour cell growth, NCI panel, 48 h
MDA-MB-231 = tested on: MDA-MB-231
CAKI-1 = tested on: CAKI-1
NCI-H522 = tested on: NCI-H522
M14 = tested on: M14
BT-549 = tested on: BT-549
UACC-257 = tested on: UACC-257
OVCAR-4 = tested on: OVCAR-4
RXF 393 = tested on: RXF 393
DU-145 = tested on: DU-145
OVCAR-5 = tested on: OVCAR-5
HOP-92 = tested on: HOP-92
MOLT-4 = tested on: MOLT-4
CCRF-CEM = tested on: CCRF-CEM
SF-539 = tested on: SF-539
NCI-H460 = tested on: NCI-H460
SF-268 = tested on: SF-268
786-0 = tested on: 786-0
NCI-H23 = tested on: NCI-H23
K562 = tested on: K562
SNB-19 = tested on: SNB-19
SK-MEL-28 = tested on: SK-MEL-28
EKVX = tested on: EKVX
SR = tested on: SR
T47D = tested on: T47D
UO-31 = tested on: UO-31
COLO 205 = tested on: COLO 205
HCC 2998 = tested on: HCC 2998
ACHN = tested on: ACHN
MDA-MB-435 = tested on: MDA-MB-435
LOX IMVI = tested on: LOX IMVI
A498 = tested on: A498
SF-295 = tested on: SF-295
OVCAR-8 = tested on: OVCAR-8
U-251 = tested on: U-251
MDA-N = tested on: MDA-N
NCI-H226 = tested on: NCI-H226
SK-OV-3 = tested on: SK-OV-3
KM12 = tested on: KM12
SK-MEL-5 = tested on: SK-MEL-5
SK-MEL-2 = tested on: SK-MEL-2
NCI/ADR-RES = tested on: NCI/ADR-RES
SNB-75 = tested on: SNB-75
MCF7 = tested on: MCF7
SW-620 = tested on: SW-620
HCT-15 = tested on: HCT-15
HOP-62 = tested on: HOP-62
PC-3 = tested on: PC-3
RPMI-8226 = tested on: RPMI-8226
TK-10 = tested on: TK-10
Hs-578T = tested on: Hs-578T
IGROV-1 = tested on: IGROV-1
UACC-62 = tested on: UACC-62
A549 = tested on: A549
HT-29 = tested on: HT-29
HL-60 = tested on: HL-60
Malme-3M = tested on: Malme-3M
OVCAR-3 = tested on: OVCAR-3
SN12C = tested on: SN12C
HCT-116 = tested on: HCT-116

For NC(CO)Cc1c[nH]cn1 (configuration not stated), the GI50 (MDA-MB-231) was > 100 µM (inactive), the GI50 (CAKI-1) was > 100 µM (inactive) and the GI50 (NCI-H522) was > 100 µM (inactive). For the same compound, the GI50 (M14) was > 100 µM (inactive), the GI50 (BT-549) was > 100 µM (inactive) and the GI50 (UACC-257) was > 100 µM (inactive). The GI50 (OVCAR-4) was > 10 µM (inactive), the GI50 (RXF 393) was > 10 µM (inactive) and the GI50 (DU-145) was > 100 µM (inactive). The GI50 (OVCAR-5) was > 100 µM (inactive) and the GI50 (HOP-92) was > 10 µM (inactive).

For COc1ccc([C@@]23CCC(=O)C[C@@H]2N(C)CC3)cc1OC, the GI50 (MOLT-4) was > 100 µM (inactive), the GI50 (CCRF-CEM) was > 100 µM (inactive) and the GI50 (SF-539) was > 100 µM (inactive). The GI50 (NCI-H460) was > 100 µM (inactive), the GI50 (SF-268) was > 100 µM (inactive) and the GI50 (786-0) was > 100 µM (inactive). The GI50 (NCI-H23) was > 100 µM (inactive), the GI50 (K562) was > 100 µM (inactive) and the GI50 (MDA-MB-231) was > 100 µM (inactive). The GI50 (SNB-19) was > 100 µM (inactive), the GI50 (SK-MEL-28) was > 100 µM (inactive) and the GI50 (CAKI-1) was > 100 µM (inactive). For the same compound, the GI50 (EKVX) was > 100 µM (inactive), the GI50 (SR) was 66.2 µM (inactive) and the GI50 (NCI-H522) was > 100 µM (inactive). The GI50 (T47D) was > 100 µM (inactive), the GI50 (UO-31) was > 100 µM (inactive) and the GI50 (COLO 205) was > 100 µM (inactive). For the same compound, the GI50 (HCC 2998) was > 100 µM (inactive), the GI50 (ACHN) was > 100 µM (inactive) and the GI50 (MDA-MB-435) was > 100 µM (inactive). The GI50 (M14) was > 100 µM (inactive), the GI50 (LOX IMVI) was > 100 µM (inactive) and the GI50 (UACC-257) was > 100 µM (inactive). For the same compound, the GI50 (A498) was > 100 µM (inactive), the GI50 (SF-295) was > 100 µM (inactive) and the GI50 (OVCAR-8) was > 100 µM (inactive). The GI50 (OVCAR-4) was > 100 µM (inactive), the GI50 (U-251) was > 100 µM (inactive) and the GI50 (RXF 393) was > 100 µM (inactive). The GI50 (MDA-N) was > 100 µM (inactive), the GI50 (NCI-H226) was > 100 µM (inactive) and the GI50 (SK-OV-3) was > 100 µM (inactive). The GI50 (KM12) was > 100 µM (inactive), the GI50 (SK-MEL-5) was > 100 µM (inactive) and the GI50 (SK-MEL-2) was > 100 µM (inactive). The GI50 (NCI/ADR-RES) was > 100 µM (inactive), the GI50 (SNB-75) was > 100 µM (inactive) and the GI50 (DU-145) was > 100 µM (inactive). The GI50 (MCF7) was > 100 µM (inactive), the GI50 (SW-620) was > 100 µM (inactive) and the GI50 (HCT-15) was > 100 µM. For the same compound, the GI50 (HOP-62) was > 100 µM (inactive), the GI50 (OVCAR-5) was > 100 µM (inactive) and the GI50 (PC-3) was > 100 µM (inactive). For the same compound, the GI50 (RPMI-8226) was > 100 µM (inactive), the GI50 (TK-10) was > 100 µM (inactive) and the GI50 (Hs-578T) was > 100 µM (inactive). For the same compound, the GI50 (IGROV-1) was > 100 µM (inactive), the GI50 (UACC-62) was > 100 µM (inactive) and the GI50 (A549) was > 100 µM (inactive). The GI50 (HT-29) was > 100 µM (inactive), the GI50 (HL-60) was > 100 µM (inactive) and the GI50 (Malme-3M) was > 100 µM (inactive). For the same compound, the GI50 (HOP-92) was > 100 µM (inactive) and the GI50 (OVCAR-3) was > 100 µM (inactive).

NC(=O)c1ccccc1NC(=O)C(=O)C(c1cnc2ccc([N+](=O)[O-])cc2n1)[N+](=O)[O-] (configuration not stated) was tested, and the GI50 (MOLT-4) was 46.3 µM (inactive), the GI50 (CCRF-CEM) was 39.2 µM (inactive) and the GI50 (SF-539) was > 100 µM (inactive). For the same compound, the GI50 (NCI-H460) was 64.9 µM (inactive), the GI50 (SF-268) was > 100 µM (inactive) and the GI50 (786-0) was > 100 µM (inactive). The GI50 (NCI-H23) was > 100 µM (inactive), the GI50 (K562) was > 100 µM (inactive) and the GI50 (MDA-MB-231) was > 100 µM (inactive). For the same compound, the GI50 (SNB-19) was 79.1 µM (inactive), the GI50 (SK-MEL-28) was > 100 µM (inactive) and the GI50 (CAKI-1) was > 100 µM (inactive). For the same compound, the GI50 (EKVX) was > 100 µM (inactive), the GI50 (NCI-H522) was 33.3 µM (inactive) and the GI50 (T47D) was > 100 µM (inactive). The GI50 (UO-31) was 28.9 µM (inactive), the GI50 (HCC 2998) was > 100 µM (inactive) and the GI50 (ACHN) was 23.5 µM (inactive). The GI50 (MDA-MB-435) was > 100 µM (inactive), the GI50 (M14) was > 100 µM (inactive) and the GI50 (BT-549) was > 100 µM (inactive). For the same compound, the GI50 (LOX IMVI) was 40.5 µM (inactive), the GI50 (UACC-257) was > 100 µM (inactive) and the GI50 (A498) was > 100 µM (inactive). The GI50 (SF-295) was > 100 µM (inactive), the GI50 (OVCAR-8) was > 100 µM (inactive) and the GI50 (OVCAR-4) was 53.6 µM (inactive). The GI50 (U-251) was > 100 µM (inactive), the GI50 (SN12C) was > 100 µM (inactive) and the GI50 (RXF 393) was > 100 µM (inactive). For the same compound, the GI50 (NCI-H226) was > 100 µM (inactive), the GI50 (SK-OV-3) was > 100 µM (inactive) and the GI50 (KM12) was 54.6 µM (inactive). For the same compound, the GI50 (SK-MEL-5) was 77.8 µM (inactive), the GI50 (SK-MEL-2) was > 100 µM (inactive) and the GI50 (NCI/ADR-RES) was > 100 µM (inactive). For the same compound, the GI50 (SNB-75) was > 100 µM (inactive), the GI50 (MCF7) was 62.1 µM (inactive) and the GI50 (HCT-116) was 87.7 µM (inactive). The GI50 (SW-620) was > 100 µM (inactive), the GI50 (HCT-15) was 54.6 µM and the GI50 (HOP-62) was > 100 µM (inactive). For the same compound, the GI50 (OVCAR-5) was > 100 µM (inactive), the GI50 (PC-3) was > 100 µM (inactive) and the GI50 (RPMI-8226) was > 100 µM (inactive). The GI50 (TK-10) was > 100 µM (inactive), the GI50 (Hs-578T) was > 100 µM (inactive) and the GI50 (IGROV-1) was > 100 µM (inactive). For the same compound, the GI50 (UACC-62) was > 100 µM (inactive), the GI50 (A549) was > 100 µM (inactive) and the GI50 (HT-29) was > 100 µM (inactive). The GI50 (HL-60) was > 100 µM (inactive), the GI50 (Malme-3M) was > 100 µM (inactive) and the GI50 (HOP-92) was > 100 µM (inactive). The GI50 (OVCAR-3) was > 100 µM (inactive).
